Data from BindingDB's records for doi:10.1021/acs.biochem.6b01025 (Washington College, 2017).
pKd, pKi: −log10 of the molar value.

Experiments:
[1] = biological target: T1, Tyrosine-protein phosphatase non-receptor type 1 [1-301] (Homo sapiens, UniProt P18031); assay: PTP1B Inhibition Assay
T1 construct: 1-301
T1 sequence (P18031 whole entry): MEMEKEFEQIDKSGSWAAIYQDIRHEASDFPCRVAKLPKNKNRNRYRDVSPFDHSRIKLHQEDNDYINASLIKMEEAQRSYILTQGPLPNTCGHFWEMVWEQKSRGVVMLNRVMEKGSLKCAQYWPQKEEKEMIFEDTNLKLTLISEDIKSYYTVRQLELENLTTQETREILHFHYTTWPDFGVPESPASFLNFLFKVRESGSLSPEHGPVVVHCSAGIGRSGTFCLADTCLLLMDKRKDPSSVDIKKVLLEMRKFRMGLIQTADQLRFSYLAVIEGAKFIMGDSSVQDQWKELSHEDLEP
Experimental: Kinetic parameters were determined by fitting the reaction rates to different inhibition models as a function of the inhibitor and pNPP concentrations using GraphPad Prism version 6.0d. The total reaction volume in all cases was 500 μL, and the temperature was maintained at 25 °C using a water-regulated cuvette holder.

[2] = biological target: T1, Tyrosine-protein phosphatase non-receptor type 1 [1-301]; assay: NMR Chemical Shift Titration Assay

O=C(/C=C/c1ccc(O)c(O)c1)O[C@@H](C(=O)O)[C@@H](OC(=O)/C=C/c1ccc(O)c(O)c1)C(=O)O [Cichoric acid (CHA)]
pKi [1]: 2.85 | pKd [2]: 2.80
